# Laboratory results published in US20170014472A1, “ATTENUATION OF INTRAPULMONARY INFLAMMATION” (APEPTICO FORSCHUNG UND E[…], priority 2014, published 2017).
# Where “and” joins values, the source holds several entries; their conditions need not be identical. Identical values can stand only once. Like-named read-outs stand apart in the source and are kept apart here.
# Legend:
# Format in all cases: in vivo, pig
# [1] = tested on: intrapulmonary mRNA of IL-1β, IL-6, TNF-α, COX-2, iNOS, amphiregulin, tenascin-c; assay: Intrapulmonary mRNA quantification (real-time PCR, normalized to PPIA) in lung tissue of LPS-septic pigs
# Procedure: (§1) Following instrumentation baseline parameters were assessed at healthy state. FIG. 1 summarizes the experimental protocol: systemic inflammation was induced by continuous LPS infusion (Escherichia coli serotype O111:B4, Sigma-Aldrich, Switzerland) for one hour at 100 μg kg^−1 h^−1, followed by 10 μg kg^−1h^−1 for the entire experiment. Initial high-dose infusion was combined with a non-protective ventilation setting (Vt 25 mL kg^−1, zero PEEP, FiO2 1.0) to add a VILI component. Afterwards the ventilation mode was switched to a more lung protective setting: Vt of 8 mL kg^−1, PEEP 5 cm H2O, FiO2 of 0.4-0.5, and a variable respiratory rate to maintain a pH>7.2. The animals were monitored over six hours after sepsis induction. During the induction phase a non-participant randomized the animals into two groups and prepared the peptide solution as previously described (Hartmann E K et al, Acta anaesthesiologica Scandinavica 2013, 57(3):334-341) for blinded endotracheal inhalation.
# (§2) Group (1) animals, to which 1 mg kg^−1 of a compound of formula I of the amino acid sequence SEQ ID NO:5 was administered at zero and three hours;
# To determine intrapulmonary inflammation mRNA levels of pro-inflammatory cytokines interleukin-1β (IL-1β), interleukin-6 (IL-6), TNF-α, and enzymes prostaglandin G/H synthase-2 (COX-2) and inducible nitric oxide synthase (iNOS) were quantified. Amphiregulin and tenascin-c expression levels were examined as surrogates of mechanical stress and remodeling. Four representative samples from the left lung (upper/lower lobe, each dependent/non-dependent) were collected, snap frozen in liquid nitrogen and stored at −80° C. RNA extraction and quantification procedure by real-time polymerase chain reaction (Lightcycler 480 PCR System, Roche Applied Science, Germany) was conducted as previously described in detail.[17-19] mRNA expression data were normalized against peptidylprolyl isomerase A (PPIA) as control gene.
# (§3) Data are expressed as median and interquartile range (IQR) respectively box-plots. Intergroup comparisons were tested with the Mann-Whitney-U-Test. If multiple testing was performed, P values were adjusted by the Bonferroni correction. Intragroup time courses of repetitively measured parameters were analyzed by Friedman ANOVA on ranks and post-hoc Student-Newman-Keuls-Test. P values below 0.05 were regarded as significant. Physiological data (ventilator and hemodynamic data) as set out in Table 1 were analyzed in explorative manner only. The statistical software SigmaPlot 11.0 (Systat Inc., USA) was used.
# [2] = tested on: LPS-induced lung injury; assay: Post-mortem macroscopic and histopathological lung injury scoring and lung wet to dry ratio in LPS-septic pigs; settings: for hemorrhage, histopathological score / alveolar edema, histopathological score / epithelial destruction, histopathological score / inflammatory infiltration, histopathological score / interstitial edema, histopathological score / microatelectasis, histopathological score / overdistension, histopathological score: post-mortem at 6 h, median (IQR); for hemorrhage, histopathological score: 0 to 5 points, CTRL higher, P<0.05 vs. Group (1); for alveolar edema, histopathological score / epithelial destruction, histopathological score / inflammatory infiltration, histopathological score / interstitial edema, histopathological score / microatelectasis, histopathological score / overdistension, histopathological score: severity 0 to 5 points
# Procedure: as §1, §2
# The lungs were removed en-bloc after thoracotomy. A macroscopic lung injury score was assessed as previously described in detail (Lim C M et al, Lung 2003, 181(1):23-34). Four ventral and dorsal segments (each upper/lower right, upper/lower left) of the lung surface were examined for hemorrhage and congestion (2 points>50%, 1 point for<50%, 0 points for no or minimal changes). The right lung was fixed in 10% buffered formalin. Representative tissue samples were paraffin embedded and cut for hematoxylin and eosin staining A blinded investigator under supervision of a senior pathologist performed the histopathological assessment. In different lung regions (non-dependent periphery and bronchial, dependent periphery and bronchial) morphological changes were rated for seven criteria (alveolar edema, interstitial edema, hemorrhage, inflammatory infiltration, epithelial damage, microatelectasis and overdistension). The severity of each parameter ranged from 0 (no occurrence) to 5 points (complete field). For every lung region we used the mean value of four non-overlapping microscopy fields. The sum of the regional scores in all lung regions adds to a maximum injury score of 140 points (7 parameters×5 maximum points per parameter from 4 lung regions). Additionally the regional distribution of each parameter was assessed in the dependent versus non-dependent lung regions. Similar scoring procedures were described previously (Spieth P M et al, Intensive Care Med 2007, 33(2):308-314; Wang H M et al, Eur Surg Res 2010, 45(3-4):121-133).The left lung was weighted immediately after removal and dried afterwards at 60° C. for 72 hours to determine the dry weight and wet to dry ratio (W/D).
# as §3
# [3] = tested on: porcine model of lipopolysaccharide (LPS)-induced sepsis; settings: for CO (cardiac output) / CVP (central venous pressure) / EVLW (extravascular lung water content) / MAP (mean arterial pressure) / MPAP (mean pulmonary arterial pressure) / NA (noradrenaline dosage required for hemodynamic stability) / PaCO2 (arterial partial pressure of carbon dioxide) / Pendinsp (end-inspiratory pressure) / RR (respiratory rate): median
# Procedure: Following animal care committee approval (Landesuntersuchungsamt Rheinland-Pfalz, Koblenz, Germany; approval number 23 177-07/G12-1-058) 18 juvenile pigs (weight 25-27 kg) were examined in a randomized, investigator-blinded setting.
# After sedation with intramuscular injection of ketamine (8 mg kg^−1) and midazolam (0.2 mg kg^−1) and preparation of vascular access, anesthesia was induced and maintained by intravenous propofol and fentanyl administration (8-12 mg kg^−1 h^−1/0.1-0.2 mg h^−1). A single dose of atracurium (0.5 mg kg^−1) was applied to facilitate orotracheal intubation. Ventilation (Respirator: AVEA®, CareFusion, USA) was started in pressure-controlled mode with a tidal volume of (Vt) of 8 mL kg^−1, positive end-expiratory pressure (PEEP) of 5 cmH2O, FiO2 of 0.3-0.4 and a variable respiratory rate to maintain normocapnia. A balanced saline solution (Sterofundin iso, B. Braun, Germany) was continuously infused at a rate of 10 mL kg^−1h^−1. Vascular catheters were placed ultrasound-guided in Seldinger's technique and under sterile conditions: an arterial line, a pulse contour cardiac output catheter (PiCCO, Pulsion Medical Systems, Germany) and central venous line were inserted via femoral vein access. A 7.5-French introducer for a pulmonary artery catheter was placed via the right internal jugular vein. Ventilatory and extended hemodynamic parameters were recorded continuously (Datex S/5, GE Healthcare, Germany). Body temperature was measured by a rectal probe and normothermia was maintained by body surface warming
# as §1, §2
# To maintain hemodynamic stability (mean arterial pressure >60 mmHg) additional fluid boli were administered (150 ml of balanced saline or hydroxyethyl starch once every hour). Persisting instability was treated by continuous central venous noradrenaline infusion. At the end of the experiments the animals were killed in deep general anesthesia by intravenous injection of propofol (200 mg) and potassium chloride (40 mval).
# as §3
# [4] = tested on: plasma IL-6 and TNF-α; assay: Plasma levels of IL-6 and TNF-α by ELISA in LPS-septic pigs; settings: vs CTRL; repetitive inhalation; compared with the effect on pulmonary expression
# Procedure: as §1, with “During the induction phase a non-participant randomized the animals into two groups and prepared the peptide solution as previously described (Hartmann E K et al, Acta anaesthesiologica Scandinavica 2013, 57(3):334-341) for blinded endotracheal inhalation.” left out
# Blood gas values were obtained using a Rapidlab 248 device (Bayer Healthcare, Germany) Hematological parameters were sampled during baseline, sepsis induction and after three and six hours. Lactate plasma levels, leucocyte and platelet counts were analyzed by the Institute of Laboratory Medicine, Medical Center of the Johannes Gutenberg-University. The plasma levels of IL-6 and TNF-α were determined by quantifying enzyme linked immunosorbent assays according to the manufacturer's instructions (Porcine IL-6 Quantikine ELISA, Porcine TNF-α Quantikine ELISA, R&D Systems, Germany).
# [5] = vs CTRL, lung tissue at 6 h, 1 mg kg^−1 inhaled at zero and three hours
# [6] = 3 h, 1 mg kg^−1 inhaled at zero and three hours
# [7] = 6 h, 1 mg kg^−1 inhaled at zero and three hours
# [8] = Baseline, before LPS and inhalation
# [9] = Sepsis/VILI induction, before first inhalation
substance,measurement,setting,value
"Cyclo(4-aminobutanoic acid-GQRETPEGAEAKPWYD) (XGQRETPEGAEAKPWYD; cyclized via N-terminal 4-aminobutanoic acid to Asp side chain; cyclized compound for use in inflammation) [SEQ ID NO:5, amide bond between amino group of N-terminal 4-aminobutanoic acid and β-carboxyl side chain of C-terminal aspartic acid]",intrapulmonary inflammatory response,"[1]; at 6 hours post insult, peptide inhalation, LPS-induced lung injury in pigs",significantly reduced
same,intrapulmonary overall mRNA expression of COX-2,"[1]; vs CTRL, p=0.003, lung tissue at 6 h, 1 mg kg^−1 inhaled at zero and three hours",significantly lower
same,intrapulmonary tenascin-c expression,"[1]; vs CTRL, p=0.015, lung tissue at 6 h, 1 mg kg^−1 inhaled at zero and three hours",decreased
same,intrapulmonary overall mRNA expression of TNF-α,"[1]; vs CTRL, p=0.041, lung tissue at 6 h, 1 mg kg^−1 inhaled at zero and three hours",significantly lower
same,intrapulmonary overall mRNA expression of IL-6,"[1]; vs CTRL, p=0.043, lung tissue at 6 h, 1 mg kg^−1 inhaled at zero and three hours",significantly lower
same,intrapulmonary mRNA expression of IL-1β,[1]; [5],less differences
same,intrapulmonary mRNA expression of iNOS,[1]; [5],less differences
same,"hemorrhage, histopathological score",[2]; dependent lung regions,0.1 (0.8)
same,"alveolar edema, histopathological score",[2]; dependent lung regions,0 (0.1)
same,"epithelial destruction, histopathological score",[2]; dependent lung regions,0 (0)
same,"inflammatory infiltration, histopathological score",[2]; dependent lung regions,3.4 (1.6)
same,"interstitial edema, histopathological score",[2]; dependent lung regions,1.3 (0;8)
same,"microatelectasis, histopathological score",[2]; dependent lung regions,3.8 (2.4)
same,"overdistension, histopathological score",[2]; dependent lung regions,3.5 (1.7)
same,pulmonary wet to dry ratio (W/D),"[2]; left lung, vs CTRL Group (2), trend",higher
same,"hemorrhage, histopathological score",[2]; non-dependent lung regions,0 (0)
same,"alveolar edema, histopathological score",[2]; non-dependent lung regions,0 (0)
same,"epithelial destruction, histopathological score",[2]; non-dependent lung regions,0 (0)
same,"inflammatory infiltration, histopathological score",[2]; non-dependent lung regions,3.8 (1.4)
same,"interstitial edema, histopathological score",[2]; non-dependent lung regions,0.9 (1.1)
same,"microatelectasis, histopathological score",[2]; non-dependent lung regions,3.8 (1.4)
same,"overdistension, histopathological score",[2]; non-dependent lung regions,4.1 (0.9)
same,post-mortem macroscopic and histologic lung injury,"[2]; vs CTRL Group (2), sustained lung injury in both groups",trend towards a less pronounced damage
same,CO (cardiac output),[3]; [6],3.2 L/min
same,CVP (central venous pressure),[3]; [6],11 mmHg
same,EVLW (extravascular lung water content),[3]; [6],12 mL/kg
same,MAP (mean arterial pressure),[3]; [6],61 mmHg
same,MPAP (mean pulmonary arterial pressure),[3]; [6],33 mmHg
same,NA (noradrenaline dosage required for hemodynamic stability),[3]; [6],0.2 µg/kg/min
same,PaCO2 (arterial partial pressure of carbon dioxide),[3]; [6],43 mmHg
same,Pendinsp (end-inspiratory pressure),[3]; [6],22 cmH2O
same,RR (respiratory rate),[3]; [6],34 min⁻¹
same,CO (cardiac output),[3]; [7],3.7 L/min
same,CVP (central venous pressure),[3]; [7],13 mmHg
same,EVLW (extravascular lung water content),[3]; [7],13 mL/kg
same,MAP (mean arterial pressure),[3]; [7],66 mmHg
same,MPAP (mean pulmonary arterial pressure),[3]; [7],30 mmHg
same,NA (noradrenaline dosage required for hemodynamic stability),[3]; [7],0.8 µg/kg/min
same,PaCO2 (arterial partial pressure of carbon dioxide),[3]; [7],43 mmHg
same,Pendinsp (end-inspiratory pressure),[3]; [7],19 cmH2O
same,RR (respiratory rate),[3]; [7],32 min⁻¹
same,CO (cardiac output),[3]; [8],4.5 L/min
same,CVP (central venous pressure),[3]; [8],11 mmHg
same,EVLW (extravascular lung water content),[3]; [8],10 mL/kg
same,MAP (mean arterial pressure),[3]; [8],90 mmHg
same,MPAP (mean pulmonary arterial pressure),[3]; [8],22 mmHg
same,NA (noradrenaline dosage required for hemodynamic stability),[3]; [8],0 µg/kg/min
same,PaCO2 (arterial partial pressure of carbon dioxide),[3]; [8],45 mmHg
same,RR (respiratory rate),[3]; [8],29 min⁻¹
same,Pendinsp (end-inspiratory pressure),"[3]; Baseline, healthy state before LPS and inhalation",14 cmH2O
same,CO (cardiac output),[3]; [9],4.5 L/min
same,CVP (central venous pressure),[3]; [9],10 mmHg
same,EVLW (extravascular lung water content),[3]; [9],11 mL/kg
same,MAP (mean arterial pressure),[3]; [9],100 mmHg
same,MPAP (mean pulmonary arterial pressure),[3]; [9],23 mmHg
same,NA (noradrenaline dosage required for hemodynamic stability),[3]; [9],0 µg/kg/min
same,PaCO2 (arterial partial pressure of carbon dioxide),[3]; [9],35 mmHg
same,Pendinsp (end-inspiratory pressure),[3]; [9],22 cmH2O
same,RR (respiratory rate),[3]; [9],9 min⁻¹
same,Raw (airway resistance),"[3]; pig, in vivo",10 cmH2O L^−1s^−1 and 12 cmH2O L^−1s^−1 and 11 cmH2O L^−1s^−1
same,plasma level of IL-6,[4],less affected
same,plasma level of TNF-α,[4],less affected
